Assay [1] deals with PfRuvB3. In words: PfRuvB3 unwinding activity: requirement of co-factors and effects of salt/EDTA. The assay is classed as biochemical, Plasmodium falciparum. To be noted: for Relative activity (%), PfRuvB3 unwinding activity: standard reaction = 35. As for the experimental part:
(§1) Unwinding of [^32P]-labelled partial duplex DNA was employed as a measurement of helicase activity. The reaction mixture (10 µl) contained 20 mM Tris–HCl pH 9.0, 8 mM DTT, 2 mM MgCl2, 2 mM ATP, 10 mM KCl, 4% (w/v) sucrose, […] BSA, [^32P]-labelled DNA duplex substrate (Table 1) and purified PfRuvB3. The assay was performed at 37 °C for 90 min (unless indicated otherwise) and terminated with addition of 10X DNA loading dye (Fermentas, USA) and further incubation at 37 °C for 5 min. Helicase substrate and product were separated by 12% non-denaturing PAGE and then the gel was exposed to an X-ray film. DNA unwinding was quantified by densitometric analysis of exposed substrate and product bands using GeneTools (Syngene). Percent unwinding is calculated using the following formula: [band density of product [single-stranded (ss)DNA] / (band density of ssDNA + band density of substrate (duplex DNA)] × 100 minus [percent unwinding in the absence of enzyme].
The ability of PfRuvB3 to hydrolyze different NTPs was studied by including 2 mM dATP, dCTP, dGTP, or dTTP in place of ATP in the standard reaction assay. The effects of ATP concentrations ranging from 0.3 to 20 mM on helicase activity were also determined. Divalent cation requirement was investigated mixture 2 mM CaCl2, CuCl2, NiSO4, ZnCl2, FeSO4, MnCl2 or MgSO4 in place of MgCl2. Effects of salt (0-200 mM NaCl in place of 10 mM KCl) and EDTA (5 mM) also were evaluated.

The target of assay [2] is PfRuvB3. In words: Effect of DNA helicase inhibitors on PfRuvB3 unwinding (helicase) activity. The assay is classed as biochemical, Plasmodium falciparum. To be noted: recombinant PfRuvB3; M13-17-mer duplex DNA pre-incubated with 0.1 to 50 μM drug for 10 min; 37 °C 90 min. As for the experimental part:
as §1
Known DNA helicase inhibitors, aphidicolin genistein, daunorubicin, doxorubicin, mitoxantrone, and netropsin (Sigma, USA) were prepared as 10^−2 M stock solutions in dimethylsulfoxide (DMSO) and stored at −20 °C until used. All compounds were diluted with 10 mM Tris–HCl, pH 9.0 to specified concentrations for the assay. M13-17-mer duplex DNA was pre-incubated with 0.1 to 50 μM drug for 10 min prior to addition to the standard helicase assay mixture. The 0.5% (v/v final concentration) of DMSO was used as solvent control to determine its effects on helicase activity. The dose–response curves of relative activities of PfRuvB3 and various drug concentrations were generated, and half-maximal inhibitory concentration (IC50), the concentration of compound to inhibit enzyme activity by 50%, was obtained using GraphPad Prism 6.01 software.

The target of assay [3] is P. falciparum 60 kDa DNA helicase (PfDH60). On the set-up: method as in PMID 16884495. To be noted: cited from earlier work.
Assay [4] deals with parasite growth. On the set-up: method as in PMID 16772048. To be noted: read-out: IC50, parasite growth inhibition; cited from earlier work.
Assay [5] has as its target P. falciparum 45 kDa helicase (PfH45). On the set-up: method as in PMID 17822710. To be noted: cited from earlier work.
The target of assay [6] is P. falciparum DNA helicase A (PfDH A). On the set-up: method as in PMID 16772048. To be noted: cited from earlier work.
The target in assay [7] is human DNA helicase (HDH II). On the set-up: method as in PMID 1614415. The conditions noted are these: cited from earlier work.
The target in assay [8] is P. falciparum UvrD helicase (PfUDN). The conditions noted are these: cited from earlier work.
Assay [9] relates to P. falciparum Dbp5/DDX19 homolog (PfD66). On the set-up: method as in PMID 21980563. The conditions noted are these: cited from earlier work.
Where [10] appears, read: 2 mM divalent cation salt in place of MgCl2, 1 μg PfRuvB3.
Where [11] appears, read: 2 mM dNTP in place of ATP, 1 μg PfRuvB3.

Consider 19 molecules from publication PMC5093981 (Malaria Journal, 2016).

Bounds are passed on as bounds.

`[Ca+2].[Cl-].[Cl-]` [CaCl2]: the “Relative activity (%), PfRuvB3 unwinding activity” value (shortened to “Relative activity (%)”) in assay [1] (setting [10]) is recorded as less than 2%.

For `[Cl][Cu][Cl]` [CuCl2], the “Relative activity (%)” value in [1] (setting [10]) came out at 36%.

As for `O=C(O)CN(CCN(CC(=O)O)CC(=O)O)CC(=O)O` [EDTA], the “Relative activity (%)” value in assay [1] (+EDTA (5 mM)) was less than 2%. For the same molecule, the Helicase function result in assay [1] (EDTA 5 mM added to reaction mixture) is reported as “complete loss of helicase function”.

As to `O=S(=O)([O-])[O-].[Fe+2]` [FeSO4], in [1] (setting [10]), the “Relative activity (%)” value is on record as less than 2%.

Take `O=S(=O)([O-])[O-].[Mg+2]` [MgSO4]: the “Relative activity (%)” value in [1] (setting [10]) was determined as 37%.

With `[Cl][Mn][Cl]` [MnCl2], the “Relative activity (%)” value in [1] (setting [10]) is reported as less than 2%.

Take `[Cl-].[Na+]` [NaCl]: in [1] (100 mM NaCl), the “Unwinding activity of PfRuvB3” value is given as “almost absent”. For the same molecule, the “Relative activity (%)” value in [1] (+NaCl (200 mM)) was less than 2%. In assay [1] (NaCl 200 mM), the Enzyme activity inhibited is approximately 98%.

Consider `[Cl][Ni][Cl]` [NiCl2], for which, in assay [1] (setting [10]), the “Relative activity (%)” value is reported as 34%.

On to `[Cl-].[Cl-].[Zn+2]` [ZnCl2], for which the “Relative activity (%)” value in assay [1] (setting [10]) stood at 30%.

Usually IC50 stands for the concentration that inhibits the measured activity by half. Turning to `C[C@@]1(CO)[C@H](O)CC[C@@]2(C)[C@H]1CC[C@H]1C[C@@H]3C[C@@]12CC[C@]3(O)CO` [aphidicolin], the IC50 in assay [2] was more than 50000 nM.

Take `Nc1ncnc2c1ncn2[C@H]1C[C@H](O)[C@@H](COP(=O)(O)OP(=O)(O)OP(=O)(O)O)O1` [dATP]: in [1] (setting [11]), the “Relative activity (%)” value was found to be 33%.

Turning to `Nc1ccn([C@H]2C[C@H](O)[C@@H](COP(=O)(O)OP(=O)(O)OP(=O)(O)O)O2)c(=O)n1` [dCTP], the “Relative activity (%)” value in assay [1] (setting [11]) is less than 2%.

With `Nc1nc2c(ncn2[C@H]2C[C@H](O)[C@@H](COP(=O)(O)OP(=O)(O)OP(=O)(O)O)O2)c(=O)[nH]1` [dGTP], the “Relative activity (%)” value in assay [1] (setting [11]) is less than 2%.

For the molecule `Cc1cn([C@H]2C[C@H](O)[C@@H](COP(=O)(O)OP(=O)(O)OP(=O)(O)O)O2)c(=O)[nH]c1=O` [dTTP], in assay [1] (setting [11]), the “Relative activity (%)” value is listed as less than 2%.

On to `COc1cccc2c1C(=O)c1c(O)c3c(c(O)c1C2=O)C[C@@](O)(C(C)=O)C[C@@H]3O[C@H]1C[C@H](N)[C@H](O)[C@H](C)O1` [daunorubicin], for which the IC50 in assay [3] is 3000 nM; in assay [4], 2500 nM; in [5], 5000 nM; in assay [6], 2000 nM; in assay [7], 6230 nM; in assay [8], 4400 nM. Further, the concentration for half-maximal inhibition (IC50) in assay [2] is 760 nM.

Regarding `COc1cccc2c1C(=O)c1c(O)c3c(c(O)c1C2=O)C[C@@](O)(C(=O)CO)C[C@@H]3O[C@H]1C[C@H](N)[C@H](O)[C@H](C)O1` [doxorubicin], the figures for the IC50 in assay [4] and in assay [2] were 1500 nM and 2600 nM, respectively.

Take `O=c1c(-c2ccc(O)cc2)coc2cc(O)cc(O)c12` [genistein]: the IC50 in [2] is more than 50000 nM.

Take `O=C1c2c(O)ccc(O)c2C(=O)c2c(NCCNCCO)ccc(NCCNCCO)c21` [mitoxantrone]: the half-inhibitory concentration (IC50) in [2] was more than 50000 nM.

Turning to `Cn1cc(NC(=O)c2cc(NC(=O)CN=C(N)N)cn2C)cc1C(=O)NCCC(=N)N` [netropsin], the IC50 is 500 nM in [3]; 3200 nM in [9]; 800 nM in assay [5]; 3300 nM in assay [8]; 7090 nM in [2].
